Laboratory results published in PubChem BioAssay (NCI).
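96-well plates; 48 h exposure; 5 concentrations. Endpoints by linear interpolation between flanking doses. Not reached: highest tested concentration assigned. TGI is the concentration that stops growth completely.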

Experiments:
Test in all cases: NCI anticancer screen, dose series, 48 h
[1] = tested on: 786-0 renal
[2] = tested on: HT29 colon
[3] = tested on: HS 578T breast
[4] = tested on: MALME-3M melanoma
[5] = tested on: SW-620 colon
[6] = tested on: KM12 colon
[7] = tested on: MCF7 breast
[8] = tested on: A549 NSCLC
[9] = tested on: EKVX NSCLC
[10] = tested on: MOLT-4 leukemia
[11] = tested on: UACC-257 melanoma
[12] = tested on: CAKI-1 renal
[13] = tested on: U251 CNS
[14] = tested on: LOX IMVI melanoma
[15] = tested on: UO-31 renal
[16] = tested on: HCT-15 colon
[17] = tested on: K-562 leukemia
[18] = tested on: RPMI-8226 leukemia
[19] = tested on: SR leukemia

| Structure (SMILES) | TGI [1] [µM] | TGI [2] [µM] | TGI [3] [µM] | TGI [4] [µM] | TGI [5] [µM] | TGI [6] [µM] | TGI [7] [µM] | TGI [8] [µM] | TGI [9] [µM] | TGI [10] [µM] | TGI [11] [µM] | TGI [12] [µM] | TGI [13] [µM] | TGI [14] [µM] | TGI [15] [µM] | TGI [16] [µM] | TGI [17] [µM] | TGI [18] [µM] | TGI [19] [µM] |
| --- | --- | --- | --- | --- | --- | --- | --- | --- | --- | --- | --- | --- | --- | --- | --- | --- | --- | --- | --- |
| COC(=O)c1ccccc1C1CN=NC12Cc1cc(C)cc(C)c1C2=O (stereo unspecified) | > 100 | > 100 | > 100 | > 100 | > 100 | > 100 | > 100 | > 100 | > 100 | > 100 | > 100 | > 100 | > 100 | > 100 | > 100 | 76.6 | > 100 | – | – |
| N#CC(c1ccccc1)N(CCOCCOCCN(C(=O)c1cccc2ccccc12)C(C#N)c1ccccc1)C(=O)c1cccc2ccccc12 (stereo unspecified) | > 100 | > 100 | > 100 | > 100 | > 100 | > 100 | > 100 | > 100 | > 100 | > 100 | > 100 | > 100 | > 100 | > 100 | > 100 | > 100 | > 100 | – | – |
| COC(=O)C1(C(=O)OC)CC2=C(S(=O)(=O)c3ccccc3)C[C@H](C#N)[C@H]2C1 | > 100 | > 100 | > 100 | > 100 | > 100 | > 100 | > 100 | > 100 | > 100 | > 100 | > 100 | > 100 | > 100 | > 100 | > 100 | > 100 | – | – | – |
| CCOC(=O)c1cc2cc(C)cc(C(=O)c3ccc([N+](=O)[O-])cc3)c2[nH]1 | > 100 | > 100 | > 100 | > 100 | > 100 | > 100 | > 100 | > 100 | > 100 | > 100 | > 100 | > 100 | > 100 | > 100 | > 100 | > 100 | > 100 | > 100 | – |
| CC1=C2CN(C(=O)OCC(C)C)CCC2C2=C(C(=O)c3ccccc3C2=O)C1C (stereo unspecified) | > 10 | > 10 | – | > 10 | > 10 | > 10 | > 10 | > 10 | > 10 | > 10 | > 10 | > 10 | – | > 10 | – | > 10 | > 10 | > 10 | > 10 |
| Cc1ccc(C2SCC(=O)N2NC(=O)c2ccncc2)s1 (stereo unspecified) | > 100 | > 100 | – | > 100 | > 100 | > 100 | > 100 | > 100 | > 100 | > 100 | > 100 | > 100 | > 100 | > 100 | > 100 | > 100 | > 100 | > 100 | > 100 |
| Cn1c(=O)cc(N2CCCC2)[nH]c1=O | > 100 | > 100 | – | > 100 | > 100 | > 100 | > 100 | > 100 | > 100 | > 100 | > 100 | > 100 | > 100 | > 100 | – | > 100 | > 100 | > 100 | > 100 |
| COC(=O)[C@H](COC(=O)/C=C/c1ccc(OC(C)=O)c(OC(C)=O)c1)NC(=O)/C=C/c1ccc(OC(C)=O)c(OC(C)=O)c1 | 32.1 | 54 | 49.7 | 20.7 | > 100 | 36.6 | > 100 | > 100 | 38.9 | > 100 | 42.1 | 35.1 | > 100 | 95.6 | – | 70.6 | > 100 | > 100 | – |
| COc1ccc(C(c2ccc3c(c2)OCO3)N2C(=O)CCC2C(=O)O)cc1 (stereo unspecified) | > 100 | > 100 | – | > 100 | > 100 | > 100 | > 100 | > 100 | > 100 | > 100 | > 100 | > 100 | > 100 | > 100 | > 100 | > 100 | > 100 | > 100 | > 100 |
| O=C(c1cccs1)N(Cc1cccnc1)C(=S)N(Cc1cccnc1)C(=O)c1cccs1 | 34.3 | > 100 | > 100 | > 100 | > 100 | > 100 | > 100 | > 100 | > 100 | > 100 | > 100 | > 100 | > 100 | > 100 | > 100 | > 100 | > 100 | – | > 100 |
| O=[N+]([O-])c1ccc(C(=Nc2ccccc2)SSC(=Nc2ccccc2)c2ccc([N+](=O)[O-])o2)o1 | 4.08 | 4.1 | 5.34 | 5.09 | – | 4.15 | – | – | 3.48 | > 24 | > 21.9 | 4.67 | 2.24 | 3.83 | 2.82 | 2.2 | – | – | > 100 |
| Oc1cccc2c1[nH]c1c(C3=C[C@@]4(O)CC/C=C\CCCCN5CC[C@@H]3[C@]3(CC6/C=C\CCCCN6[C@H]34)C5)nccc12 (stereo partly specified) | 1.86 | 2.25 | 3.69 | 3.02 | 3.44 | 2.99 | 1.77 | 4.39 | 4.87 | 4.95 | 5.79 | 4.43 | 2.79 | 2.04 | 3.5 | 1.86 | 2.01 | 2.6 | – |
| CCn1c2ccccc2c2cc(NC(=O)c3c(NCCNCCO)nc(=O)[nH]c3C)ccc21 | > 100 | > 100 | > 100 | > 100 | > 100 | > 100 | > 100 | > 100 | > 100 | > 100 | > 100 | > 100 | > 100 | > 100 | > 100 | > 100 | > 100 | – | – |
